Data taken from a melting point compilation (Tetko et al.; mined from patent text by program, amines drawn as free bases though some values may be those of a salt).
Starred links: 1 amine or outer side, 2 acyl side, 3 side chain; linkers in the order of their positions; H or OH if unused. Residues, ends and D or L forms follow the SMILES beside them. Suc = O=C(CCC(=O)[*:2])[*:1]

SMILES	melting point [°C]
CN1CCC(OC2c3ccccc3CCn3c2nc(I)c3C#N)CC1 (stereo not drawn)	195
Cc1cc(O)c(S(=O)(=O)CC2CCCCC2)c(=O)o1	104 to 106
CC(C)n1c(=O)ccc2cnc(Nc3cccnc3)nc21	156 to 158
N#Cc1ccc(NN)cc1F	136
CCOCc1nc2c(N)nc(C)c(C)c2n1CCOCCCc1nccs1	91 to 92
Fc1ccc(N2CCN(CCCc3[nH]nc4c3CCCC4)CC2)cc1	106 to 108
CCCCCCCCCCCCc1cnn(C(C(=O)Nc2c(OC)cc(OC)cc2OC)c2ccccc2)n1 (stereo not drawn)	123 to 125
CCN1c2ccccc2CC(C#N)c2ccccc21 (stereo not drawn)	127 to 129
COc1cc2ncc(O[C@H]3CC[C@H](C(=O)O)CC3)nc2cc1OC	90 to 93
Cc1cccc(C)c1NC(=O)CCN1CCN(CCCC(c2ccc(F)cc2)c2ccc(F)cc2)C(C(N)=O)C1 (stereo not drawn)	121
O=C1NC(c2ccccc2)C(C(=O)NCCO[N+](=O)[O-])O1 (stereo not drawn)	122 to 124
CCCCN1Nn2c(c3ncnc-3c3cccnc32)N1CC(C)C	182 to 184
O=S(=O)(c1ccccc1)N1C[C@@H](c2c[nH]c3ccccc23)[C@H](c2cn3c4c(cccc24)CCC3)C1	115 to 125
CC1=NN(c2ccc(C)c(C)c2)C(=O)C1=NNc1cccc(-c2cccc(P(=O)(O)O)c2)c1O	144 to 149
CCNC(=O)C1CCCN1C(=O)C(C)NC(=O)C(C)NC(=O)CCC(=O)O (stereo not drawn) (Suc-Ala-Ala-Pro-NHEt; configuration not given here)	185 to 186
Cc1cc2c(cc1-c1ccc(C=CC(=O)O)s1)C(C)(C)CCC2(C)C	175 to 177
ClCCCn1cc2cc(OCc3ccccc3)ccc2n1	97 to 98
O=C1c2ccccc2C(O)N1CCN1CCC(Cc2c[nH]c3ccc(F)cc23)CC1 (racemic)	183
CS(=O)(=O)c1ccc(-c2cnn(C3CCc4ccccc43)c(=O)c2-c2ccc(F)cc2)cc1 (stereo not drawn)	128 to 130
CCCC(CCC)C(=O)NCC(=O)CCCCCCCCCCCCN(N)C(=O)n1cc(F)c(=O)[nH]c1=O	116 to 118
O=C1N(c2ccccc2)N=C(Nc2ccccc2)C1(Br)Br	190
O=c1ncc(Br)cn1CCCl	185 to 186

The next lines start with the values.

melting point [°C]	SMILES
124 to 126	CCn1c2cc(C(F)(F)F)ccc2c2oc(C(=O)Cl)cc21
179 to 182	O=C(Nc1ccc(Oc2cc(Cl)ncn2)cc1)Nc1ccc(Br)c(C(F)(F)F)c1
201 to 203	COc1ccc(-n2nc(C#N)cc2-c2ccc(S(C)(=O)=O)cc2)cc1Cl
214 to 215	O=S(=O)(NCc1ccccc1)c1ccc2nc(S)sc2c1
189 to 190	NC(=O)c1ccc(F)c2c1C=CCO2
190 to 191	O=C(N[C@H](Cc1cccc(C(F)(F)F)c1)[C@@H](O)c1ccc(F)cc1)C1CCCCC1 (racemic)
134 to 136	CCC(C)c1ccc2c(c1)C1(O)C(=O)c3ccccc3C1(O)O2 (stereo not drawn)
72 to 78	CS(=O)(=O)c1ccc(C(=O)C2C(=O)CCCC2=O)c(Cl)c1OCc1cc(-c2ccccc2)no1
189	N=C(Nc1nc(-c2ccccn2)nc2ccccc12)C(F)(F)F
123 to 126	COC(=O)c1ccc(OC)cc1NC(C)=O
205 to 207	CCOC(=O)c1cnc(Nc2ccccc2OC(C)C)[nH]c1=O
105 to 107	CC(C)C(=O)C(C)(C)C1(O)C(=O)N(Cc2ccc(Cl)cc2)c2ccccc21 (stereo not drawn)
184	CC(=O)Nc1ccc(C(=O)CBr)cc1F
120 to 126	Cc1cc(C(=O)O)cc(C)c1OCCNC(=O)C1Cc2ccccc2N1S(=O)(=O)c1ccc(-c2cccc(C(F)(F)F)c2)cc1 (stereo not drawn)
127 to 129	Cc1c(Br)c(=O)n(-c2cc(C(=O)OC(C)C)c(Cl)cc2F)c(=O)n1C
49.6	CCOC(=O)C(C)Oc1ccc(C(C)=O)cc1 (stereo not drawn)
